Earlier results as cited in patent US20240207240A1, “Method for Improving or Treating Cognitive Dysfunction Complicating HIV-associated Cryptococcal Meningitis with Lenalidomide” (The First Affiliated Hospital Zhejiang University School of …, priority 2022, published 2024).

Key:
[1] = cited from earlier work
[2] = in vivo; cited from earlier work

| Compound | bioavailability [1] | side effects [2] |
| --- | --- | --- |
| Nc1cccc2c1C(=O)N(C1CCC(=O)NC1=O)C2=O (stereo not drawn) [pomalidomide] | high |  |
| O=C1CCC(N2C(=O)c3ccccc3C2=O)C(=O)N1 (stereo not drawn) [thalidomide] | high | bone marrow suppression, cardiotoxicity, vascular thrombosis, and neurotoxicity |
